The subject of test [1] is 4T1 breast cancer mouse models. Briefly: Metastasis test in 4T1 breast cancer mouse models. In kind it is in vivo. The note with it: 4T1 mouse model; five weeks, treated every 7 days; cyclophosphamide 5 mg/kg, doxorubicin 0.5 mg/kg, actinomycin D 20 μg/kg. On the procedure:
4T1 breast cancer mouse models were created based on common knowledge in the art. The test lasted for five weeks, and the mice in each of the following groups were treated on the 0th, 7th, 14th, 21st, 28th, and 35th day of the test: • Group 1: Without any treatment; • Group 2: With cyclophosphamide administered at a dose of 5 mg/kg: • Group 3: With both cyclophosphamide and doxorubicin administered, the dose of cyclophosphamide being 5 mg/kg, and the dose of doxorubicin being 0.5 mg/kg (equivalent to a clinical dose of 20 mg/m^2 for humans); • Group 4: With actinomycin D administered at a dose of 20 μg/kg (equivalent to a clinical dose of […] for humans); • Group 5: With doxorubicin administered at a dose of 0.5 mg/kg: • Group 6: With both actinomycin D (20 μg/kg) and doxorubicin (0.5 mg/kg) administered; and • Group 7: With both actinomycin D (10 μg/kg) and doxorubicin (0.25 mg/kg) administered, the doses being 0.5 times as high as those for group 6.
Once the test was completed, the mice in each group were sacrificed, and the numbers of breast tumors that had metastasized to the lungs and to the liver (i.e., lung metastatic nodules and liver metastatic nodules) of each group of mice were counted. In addition, lungs and livers were collected from the mice, sectioned, and then stained with hematoxylin and eosin (H&E) stain, as shown in FIG. 20.

In a further test the test system is MDA-MB-231 cells. Briefly: Cytotoxicity / synergistic cytotoxic effect test in MDA-MB-231 cells. It counts as cell-based, human. The text has this: (§1) The cell lines used in the following examples, namely the MDA-MB-231 (human triple-negative breast cancer) cell line, the 4T1 (mouse triple-negative breast cancer) cell line, and the MCF-7 (breast cancer) cell line, are easily obtainable by a person with common knowledge in the art and therefore need not be deposited. The 4T1 cell line is frequently used as a research model for the metastasis of breast cancer and a model for the selection of clinical drugs for breast cancer.
(§2) MDA-MB-231 cells, 4T1 cells, and MCF-7 cells were treated with actinomycin D and doxorubicin in different ratios for 48 hours, before combination indices (CI) were calculated based on cytotoxicity.

For another test, the system named is 4T1 cells. The test is described as follows: Cytotoxicity / synergistic cytotoxic effect test in 4T1 cells. It counts as cell-based, mouse.
From the text: as §1, §2

Another test has as its system MCF-7 cells. The test is described as follows: Cytotoxicity / synergistic cytotoxic effect test in MCF-7 cells. In kind it is cell-based.
From the text: as §1, §2

Where [2] appears, read: Table 1, MDA-MB-231 cells, read-out: IC50 of various chemotherapy drugs against different cancer cells.
[3] abbreviates: Table 1, 4T1 cells, read-out: IC50 of various chemotherapy drugs against different cancer cells.
[4] abbreviates: Table 1, MCF-7 cells, read-out: IC50 of various chemotherapy drugs against different cancer cells.

Where two headings read alike, the source gives them in different places. Numbered stars: 1 amine (or outer) side, 2 acyl side, 3 side chain; on linkers, the order of the positions; unused ones are H or OH. Bridge positions count the residues as written; N and C are the ends. Square brackets hold non-standard residues; d marks the D form. Peptide text beside a SMILES is read from it. I, II: the chains in the order shown. Actinocin(9to1) = Cc1c2oc3c(C)ccc(C(=O)[*:1])c3nc-2c(C(=O)[*:2])c(N)c1=O; NMeV = CN[C@H](C(=O)O)C(C)C; Sar = CNCC(=O)O

For the compound `O=P1(N(CCCl)CCCl)NCCCO1` (stereo not drawn) [cyclophosphamide], in test [1], the “number of liver metastatic nodules” value is “reduced only slightly” and the “number of lung metastatic nodules” value is listed as “reduced only slightly”.
A word on the IC50: it is the concentration that inhibits the measured activity by half. In the case of `N.N.[Cl][Pt][Cl]` [Cisplatin, cisplatin], the IC50 in the test on MDA-MB-231 cells (setting [2]) was 37200 ± 5100 nM; in the test on 4T1 cells (setting [3]) it was 3300 ± 1200 nM; in the test with MCF-7 cells (setting [4]) it was 19100 ± 2200 nM.
On to `COc1cccc2c1C(=O)c1c(O)c3c(c(O)c1C2=O)C[C@@](O)(C(=O)CO)C[C@@H]3O[C@H]1C[C@H](N)[C@H](O)[C@H](C)O1` [Doxorubicin, doxorubicin], for which the IC50 in the test on MDA-MB-231 cells (Homo sapiens, Table 1, MDA-MB-231 cells, read-out: IC50 of various chemotherapy drugs against different cancer cells) is 6.5 ± 0.9 nM; in the test with MDA-MB-231 cells (Homo sapiens, Table 2, single drug, MDA-MB-231 cells, 48 hours, read-out: IC50), 1270 nM; in the test with 4T1 cells (Mus musculus, Table 1, 4T1 cells, read-out: IC50 of various chemotherapy drugs against different cancer cells), 2.8 ± 1.1 nM; with 4T1 cells (Mus musculus, Table 2, single drug, 4T1 cells, 48 hours, read-out: IC50), 579 nM; with MCF-7 cells (Homo sapiens, MCF7, Table 1, MCF-7 cells, read-out: IC50 of various chemotherapy drugs against different cancer cells), 4.5 ± 1.7 nM; in the test on MCF-7 cells (Homo sapiens, MCF7, Table 2, single drug, MCF-7 cells, 48 hours, read-out: IC50), 323 nM. Further, the “number of liver metastatic nodules” value in test [1] is “significantly less liver metastatic nodules than group-1 mice”. Besides, in test [1], the “number of lung metastatic nodules” value is given as “approximately the same number of lung metastatic nodules as group-3 mice”.
For `O=c1[nH]cc(F)c(=O)[nH]1` [5FU], the IC50 with MDA-MB-231 cells (setting [2]) was greater than 100000 nM; in the test with 4T1 cells (setting [3]), 5900 ± 300 nM; in the test with MCF-7 cells (setting [4]), 38300 ± 5000 nM.
Turning to `Cc1c2oc3c(C)ccc(C(=O)N[C@@H]4C(=O)N[C@H](C(C)C)C(=O)N5CCC[C@H]5C(=O)N(C)CC(=O)N(C)[C@@H](C(C)C)C(=O)O[C@@H]4C)c3nc-2c(C(=O)N[C@@H]2C(=O)N[C@H](C(C)C)C(=O)N3CCC[C@H]3C(=O)N(C)CC(=O)N(C)[C@@H](C(C)C)C(=O)O[C@@H]2C)c(N)c1=O` [Actinomycin D, actinomycin D] (I: T[dV]P[Sar][NMeV] / II: T[dV]P[Sar][NMeV]; ester I:1-I:C, II:1-II:C; linker I:N-II:N via Actinocin(9to1)), the IC50 in the test on MDA-MB-231 cells (Homo sapiens, MDA-MB-231, 48 h) came out at 3.3 nM; with MDA-MB-231 cells (Homo sapiens, MDA-MB-231, read-out: IC50 of various chemotherapy drugs against different cancer cells), 1100 ± 190 nM; with 4T1 cells (Mus musculus, 4T1, 48 h), 2.6 nM; in the test on 4T1 cells (Mus musculus, 4T1, read-out: IC50 of various chemotherapy drugs against different cancer cells) it was 500 ± 40 nM; with MCF-7 cells (Homo sapiens, MCF7, 48 h), 3.7 nM; with MCF-7 cells (Homo sapiens, MCF7, read-out: IC50 of various chemotherapy drugs against different cancer cells), 300 ± 60 nM. The “number of liver metastatic nodules” value in test [1] is listed as “increased in comparison with those of group-3 mice”. In addition, in test [1], the “number of lung metastatic nodules” value was “increased in comparison with those of group-3 mice”.

(Values after US20240307484A1 (priority 2023, published 2024).)
